Reference: patent publication US11214540B2, “Compositions for treating neurodegenerative diseases” (COGNITION THERAPEUTICS, INC., priority 2017, dated 2022)

Legend:
[1] = target: Sigma-1 receptors on Jurkat cell membranes (Homo sapiens (Human), UniProt Q99720); experiment: Competitive Radioligand Binding Assay 1, Sigma-1 binding ([3H](+)pentazocine displacement); settings: sigma-1 receptor affinity; read-out: S1 Ki
Method: Certain compounds were tested for interaction with several receptors by blocking the binding or action of their agonists or antagonists. Some compounds were tested to see whether they interact directly with known cellular receptor or signaling proteins. Compounds can be tested for the ability to displace binding of known agonists or antagonists of a given human receptor that was overexpressed in cell lines or isolated from tissue. Compounds can also be tested for the ability to block downstream signaling induced by agonists or antagonists of a given human receptor. Compounds can be tested for action at 100 known receptors, and it is desirable that specific activity will occur at only a small subset of CNS-relevant receptors.
For Sigma-1 binding, various concentrations of test compounds from 100 μM to 1 nM were used to displace 8 nM [3H](+)pentazocine from endogenous receptors on Jurkat cell membranes (Ganapathy M E et al. 1991, J Pharmacol. Exp. Ther. 289:251-260). 10 μM Haloperidol was used to define non-specific binding. […] (Bowen W D, et al. 1993, Mol. Neuropharmcol 3:117-126). 10 μM Haloperidol was used to define non-specific binding. Reactions were terminated by rapid filtration through Whatman GF/C filters using a Brandel 12R cell harvester followed by two washes with ice-cold buffer. Radioactivity on the dried filter discs was measured using a liquid scintillation analyzer (Tri-Carb 2900TR; PerkinElmer Life and Analytical Sciences). The displacement curves were plotted and the Ki values of the test compounds for the receptor subtypes were determined using GraphPad Prism (GraphPad Software Inc., San Diego, Calif.). The percentage specific binding was determined by dividing the difference between total bound (disintegrations per minute) and nonspecific bound (disintegrations per minute) by the total bound (disintegrations per minute). […]

[2] = target: potassium channel hERG (Homo sapiens (Human), UniProt Q12809); experiment: In vitro testing for hERG inhibition; format: biochemical; settings: in vitro toxicity potassium channel hERG
Chain of potassium channel hERG (Q12809 whole entry): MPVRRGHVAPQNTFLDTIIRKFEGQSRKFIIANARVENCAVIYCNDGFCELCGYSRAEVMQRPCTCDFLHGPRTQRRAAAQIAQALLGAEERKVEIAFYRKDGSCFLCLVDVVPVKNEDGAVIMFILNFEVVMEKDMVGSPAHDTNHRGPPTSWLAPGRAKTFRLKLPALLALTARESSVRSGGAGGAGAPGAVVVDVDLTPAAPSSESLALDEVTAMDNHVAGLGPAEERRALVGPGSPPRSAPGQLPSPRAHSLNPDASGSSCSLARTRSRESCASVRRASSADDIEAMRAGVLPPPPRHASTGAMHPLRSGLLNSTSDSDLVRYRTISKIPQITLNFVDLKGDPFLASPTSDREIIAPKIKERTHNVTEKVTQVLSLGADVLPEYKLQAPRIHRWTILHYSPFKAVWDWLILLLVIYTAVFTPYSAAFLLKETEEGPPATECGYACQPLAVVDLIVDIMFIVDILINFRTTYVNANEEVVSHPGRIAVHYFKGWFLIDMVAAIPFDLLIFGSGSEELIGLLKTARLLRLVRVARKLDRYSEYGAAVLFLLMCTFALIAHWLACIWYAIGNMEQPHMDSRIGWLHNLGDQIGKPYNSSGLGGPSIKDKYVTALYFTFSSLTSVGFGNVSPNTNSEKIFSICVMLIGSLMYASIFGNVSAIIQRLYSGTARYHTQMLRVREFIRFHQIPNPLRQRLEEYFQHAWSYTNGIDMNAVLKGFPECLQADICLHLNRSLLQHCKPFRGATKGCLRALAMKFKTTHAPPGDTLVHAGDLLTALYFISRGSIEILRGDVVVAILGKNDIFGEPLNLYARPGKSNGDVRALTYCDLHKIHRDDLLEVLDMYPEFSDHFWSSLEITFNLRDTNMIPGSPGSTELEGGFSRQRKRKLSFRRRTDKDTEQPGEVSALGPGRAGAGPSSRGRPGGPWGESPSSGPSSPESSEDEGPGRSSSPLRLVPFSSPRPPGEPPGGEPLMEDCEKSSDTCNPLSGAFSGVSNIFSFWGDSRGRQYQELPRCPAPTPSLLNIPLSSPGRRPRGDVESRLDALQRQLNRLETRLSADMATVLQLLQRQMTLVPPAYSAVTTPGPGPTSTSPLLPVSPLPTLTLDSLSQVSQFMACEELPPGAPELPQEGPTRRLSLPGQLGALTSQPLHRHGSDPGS
Method: In vitro testing for hERG inhibition was performed in a standard assay (See: Haverkamp W, Breithardt G, Carnm A J, Janse M J, Rosen M R, Antzelevitch C, Escande D, Franz M, Malik M, Moss A and Shah R. (2000) Eur Heat J 21 (15); 1216-31).

[3] = target: Sigma-2 receptors on membranes from rat cerebral cortex (Rattus norvegicus (Rat), UniProt Q5U3Y7); experiment: Competitive Radioligand Binding Assay 1, Sigma-2 binding ([3H]DTG displacement with (+)pentazocine mask); settings: sigma-2 receptor affinity; read-out: S2 Ki
Chain of Sigma-2 receptors on membranes from rat cerebral cortex (Q5U3Y7 whole entry): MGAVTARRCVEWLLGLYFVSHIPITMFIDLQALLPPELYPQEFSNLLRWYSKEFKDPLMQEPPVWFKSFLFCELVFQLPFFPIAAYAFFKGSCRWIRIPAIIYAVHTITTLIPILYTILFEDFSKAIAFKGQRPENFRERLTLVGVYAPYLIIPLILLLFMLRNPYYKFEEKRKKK
Method: Using the same protocol, some compounds for which membrane trafficking data are given in Table 1 were tested for recognition of sigma-2 receptor. Certain compounds preferentially bind to the sigma-2 receptor.
For Sigma-1 binding, various concentrations of test compounds from 100 μM to 1 nM were used to displace 8 nM [3H](+)pentazocine from endogenous receptors on Jurkat cell membranes (Ganapathy M E et al. 1991, J Pharmacol. Exp. Ther. 289:251-260). 10 μM Haloperidol was used to define non-specific binding. […] (Bowen W D, et al. 1993, Mol. Neuropharmcol 3:117-126). 10 μM Haloperidol was used to define non-specific binding. Reactions were terminated by rapid filtration through Whatman GF/C filters using a Brandel 12R cell harvester followed by two washes with ice-cold buffer. Radioactivity on the dried filter discs was measured using a liquid scintillation analyzer (Tri-Carb 2900TR; PerkinElmer Life and Analytical Sciences). The displacement curves were plotted and the Ki values of the test compounds for the receptor subtypes were determined using GraphPad Prism (GraphPad Software Inc., San Diego, Calif.). The percentage specific binding was determined by dividing the difference between total bound (disintegrations per minute) and nonspecific bound (disintegrations per minute) by the total bound (disintegrations per minute).
Affinities for Sigma-1 and Sigma-2 receptors are typically obtained from published studies using cerebral tissue homogenates with [3H](+)pentazocine to measure displacement from Sigma-1 receptors and [3H] 1,3-Di-(2-tolyl)guanidine in the presence of 300 nM (+)pentazocine to measure displacement from Sigma-2 receptors.

[4] = log P; format: physicochemical
In short: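 Ratio of un-ionized compound concentrations between octanol and water, with aqueous pH set so the un-ionized form predominates. Value given as the log of the octanol/water ratio.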

[5] = tested on: Abeta oligomer-induced membrane trafficking deficits in primary hippocampal neurons; experiment: Membrane Trafficking/Exocytosis (MTT) assay, Abeta oligomer effect on neurons; format: cell-based, rat; settings: membrane trafficking; read-out: EC50 Abeta;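 also: compound potency for inhibiting the Abeta oligomer effect on exocytosis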
Method: Compounds according to any embodiment described herein, were tested for their ability to inhibit an amyloid beta effect on the cells. The compounds generally were able to inhibit the amyloid beta effect as measured by a membrane trafficking/exocytosis assay (MTT assay). The rationale for this assay was as follows:
The present exocytosis assay was adapted for use with mature primary neuronal cultures grown for 3 weeks in vitro. See WO 2011/106785, which is incorporated herein by reference in its entirety. Abeta oligomers cause a dose-dependent decrease in the amount of intracellular vesicles (puncta) filled with reduced purple formazan as measured via image processing using a Cellomics VTI automated microscopy system. […] Increasing the amount of Abeta oligomers eventually results in overt toxicity. Thus, the concentration of neuroactive Abeta oligomers used in the assay is much lower than that causing cell death. […] When configured in this manner, the assay is able to detect compounds that inhibit nonlethal effects of Abeta oligomer whether these compounds act via disruption of oligomers, inhibition of oligomer binding to neurons, or counteraction of signal transduction mechanisms of action initiated by oligomer binding.
Primary hippocampal neurons from E18 Sprague-Dawley rat embryos were plated at optimized concentrations in 384 well plates in NB media (Invitrogen). Neurons were maintained in cultures for 3 weeks, with twice weekly feeding of NB media with N2 supplement (Invitrogen).
A test compound was added to cells at concentrations ranging from 100 uM to 0.001 nM followed by addition of vehicle or Abeta oligomer preparations (3 μM total Abeta protein concentration), and incubated for 1 to 24 hr at 37° C. in 5% CO2. MTT reagent (3-(4,5-dimethylthizaol-2yl)-2,5diphenyl tetrazolium bromide) (Roche Molecular Biochemicals) was reconstituted in phosphate buffered saline to 5 mg/mL. 10 μL of MTT labeling reagent is added to each well and incubated at 37° C. for 1 h, then imaged. Exocytosis was assessed by automated microscopy and image processing to quantify the amount of endocytosed and exocytosed formazan.
Each assay plate was formatted so that compounds are tested with and without Abeta oligomer on each plate. This design eliminates toxic or metabolically active compounds early on in the screening cascade (at the level of the primary screen). Reduced formazan was first visible in intracellular vesicles. Eventual formazan exocytosis was accelerated via Abeta oligomers.
Human amyloid peptide 1-42 was obtained from a number of commercial vendors such as California Peptide, with lot-choice contingent upon quality control analysis. Quality controls of oligomer preparations consist of Westerns to determine oligomer size ranges and relative concentrations, and the MTT assay to confirm exocytosis acceleration without toxicity. Toxicity was monitored in each image-based assay via quantification of nuclear morphology visualized with the DNA binding blue dye DAPI (Invitrogen). Nuclei that are fragmented are considered to be in late stage apoptosis (Majno and Joris '95) and the test would be rejected. Peptide lots producing unusual peptide size ranges or significant toxicity at a standard 1.5 μM concentration on neurons would also be rejected.
Data handling and analysis were accomplished by Cellomics VTI image analysis software and STORE automated database software. Because of the low dynamic range and neuronal well-to-well variability after three weeks in culture, statistical comparisons are made via pairwise Tukey-Kramer analysis to determine the significance of the separation between compound+Abeta oligomers from Abeta alone, and between compound alone from vehicle. The ability of mature primary neurons to more closely approximate the electrophysiologically mediated signal transduction network of the adult brain justifies this screening strategy. […]

Chain of Sigma-1 receptors on Jurkat cell membranes (Q99720 whole entry): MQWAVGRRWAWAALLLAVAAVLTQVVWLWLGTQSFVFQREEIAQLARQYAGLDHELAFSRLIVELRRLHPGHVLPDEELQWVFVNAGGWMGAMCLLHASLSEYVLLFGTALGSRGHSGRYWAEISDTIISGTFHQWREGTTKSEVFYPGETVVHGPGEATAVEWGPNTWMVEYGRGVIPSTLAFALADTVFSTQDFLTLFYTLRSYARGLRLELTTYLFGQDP

Structure (SMILES)	Ki [1] [nM]	Ki [3] [nM]	log P [4]	IC50 [2] [nM]	EC50 [5] [nM]
CC(C)=CC(CC(C)(C)c1ccc(C)cc1)NCC1CCOCC1 (stereo not drawn) [Compound 57]		150	5.21		730
CC(C)=CC(CC(C)(C)c1ccc(C)cc1)N1CCN(c2ccccc2)CC1 (stereo not drawn) [Compound 60]		210	6.91		1000
CC(C)=CC(CC(C)(C)c1ccc(Cl)cc1)N1CCC(c2ccnc(N3CCCC3)c2)CC1 (stereo not drawn) [Compound 63]		240	7.42		1500
CC(C)=CC(CCc1ccc(C)cc1)N1CCC(C2CCOCC2)CC1 (stereo not drawn) [Compound 64]	535	268	3.52	11000	
CC(C)=CC(CCc1ccc(F)cc1)N1CCC(C2CCOCC2)CC1 (stereo not drawn) [Compound 65]	1200	270	4.13	2300	
CC(C)=CC(CC(C)(C)c1ccc(Cl)cc1)N1CCC(c2ccnc(N3CCOCC3)c2)CC1 (stereo not drawn) [Compound 67]		300	6.8		13000
CC(=O)N1CCN(C(C=C(C)C)CC(C)(C)c2ccc(C(F)(F)F)cc2)CC1 (stereo not drawn) [Compound 71]	62	340	4.61	17000	
COc1ccc(C(C)(C)CC(C=C(C)C)NCC2CCOCC2)cc1 (stereo not drawn) [Compound 74]		430	4.54		12900
CC(C)=CC(CC(C)(C)c1ccc(C)cc1)N[C@H](C)c1ccccc1 (stereo partly drawn) [Compound 80]		1300	6.93		640
CC(=O)N1CCN(C(C=C(C)C)CC(C)(C)c2ccc(F)cc2)CC1 (stereo not drawn) [Compound 81]	160	2500	3.87	32000	
CC(C)=CC(CC(C)(C)c1ccc(F)cc1)N1CCC(CCOC2CCOC2)CC1 (stereo not drawn) [Compound 179]	430		5.49	4000	
CC(C)=CC(CC(C)(C)c1ccc(C(F)(F)F)cc1)N1CCC(CCOC2CCOC2)CC1 (stereo not drawn) [Compound 182]	160		6.22	2600	
CC(C)=CC(COc1ccccc1)N1CCC(O)CC1 (stereo not drawn) [Compound 184]	220		2.57	62000	
CC(C)=CC(COc1ccc(Cl)cc1)N1CCC(O)CC1 (stereo not drawn) [Compound 186]	42		3.18	2300	
CC(C)=CC(CC(C)(C)c1ccc(C(F)(F)F)cc1)N1CCC2(CC1)OCc1ccccc12 (stereo not drawn) [Compound 189]	37		6.89	5700	

The remaining compounds from weak to strong by Ki [3], led by results:

Ki [1] [nM]	Ki [3] [nM]	log P [4]	Structure (SMILES)	IC50 [2] [nM]	EC50 [5] [nM]
	120	7.02	CC(C)=CC(CC(C)(C)c1ccc(C)cc1)NCc1ccc(C)cc1 (stereo not drawn) [Compound 54]		3200
	110	6.9	CC(C)=CC(CC(C)(C)c1ccc(C)cc1)NCC1CCCCC1 (stereo not drawn) [Compound 52]		4800
	100	4.55	CC(C)=CC(CC(C)(C)c1ccc(S(C)(=O)=O)cc1)N1CCC(c2ccncc2)CC1 (stereo not drawn) [Compound 51]		20000
1910	90	5.55	CC(C)=CC(CC(C)(C)c1ccc(F)cc1)N1CCN(C(=O)OC(C)(C)C)CC1 (stereo not drawn) [Compound 47]	14000	
	86	6.37	CC(C)=CC(CC(C)(C)c1ccc(Cl)cc1)N1CCC(c2cccc(S(C)(=O)=O)c2)CC1 (stereo not drawn) [Compound 46]		4800
2.3	10	3.11	CC(CC(C)(C)c1ccc(F)cc1)N1CCC(O)CC1 (stereo not drawn) [Compound 25]	4000	
1	7	3.85	CC(CC(C)(C)c1ccc(Cl)cc1)N1CCC(C)(O)CC1 (stereo not drawn) [Compound 22]	1700	
1	6.1	3.57	CC(CC(C)(C)c1ccc(Cl)cc1)N1CCC(O)CC1 (stereo not drawn) [Compound 20]	1700	
0.8	4.5	4.03	CC(CC(C)(C)c1ccc(Cl)cc1)N1CCC(CO)CC1 (stereo not drawn) [Compound 16]	840	
1	2.9	3.85	CC(CC(C)(C)c1ccc(C(F)(F)F)cc1)N1CCC(O)CC1 (stereo not drawn) [Compound 13]	2500	
1	2.7	4.13	CCC(C)(O)CCNC(C)CC(C)(C)c1ccc(C(F)(F)F)cc1 (stereo not drawn) [Compound 12]	970	
0.5	0.8	5.35	COCCCC1CCN(CCC(C)(C)c2ccc(C(F)(F)F)cc2)CC1 [Compound 4]	2200	
0.9	0.6	4.67	CC(CC(C)(C)c1ccc(C(F)(F)F)cc1)N1CCC(CCO)CC1 (stereo not drawn) [Compound 2]	9200	> 15000
0.7	0.2	5.16	CC(C)(CCN1CCC(C2CCOCC2)CC1)c1ccc(C(F)(F)F)cc1 [Compound 1]	740	
